Results on seven compounds are retold here after patent publication US20230009366A1, “Using Alternating Electric Fields at Different Frequencies to Increase Permeability of the Blood Brain Barrier and also to Provide Other Benefits” (Novocure GmbH, priority 2021, published 2023).

A value given as a limit tells only on which side of the number the result lay.

The subject of series [1] is human glioblastoma cells. In words: Bioluminescence substrate permeation in luciferase-expressing glioblastoma cells. It counts as cell-based. Particulars: TTFields exposure.
Source text: Bioluminescence imaging: For all bioluminescence work, we used genetically-modified GBM2, GBM39 and U87-MG whereby the glioblastoma cells were transfected with lentiviral vectors that expressed either firefly luciferase (fLuc for GBM39) or a fusion protein of GFP and firefly luciferase (GFP/fLuc for GBM2 and eGFP-fLuc for U87-MG) or a Renilla luciferase-Red Fluorescence protein fusion (RLuc-RL8 for KR158B).
In series [2] the test system is U87-MG/eGFP-fLuc cells. In words: Reversibility of TTFields-induced uptake. It counts as cell-based, human. Particulars: TTFields 24 h vs none vs TTFields 24 h followed by no TTFields 24 h. The procedure:
To assess the reversibility of the effect of TTFields on cancer cells, U87-MG/eGFP-fLuc cells were subjected to three conditions: (1) No TTFields exposure, standard cell culture conditions (37° C., […], 5% CO2), (2) TTFields exposure for 24 h and (3) TTFields exposure for 24 h followed by no TTFields exposure for 24 h. The readouts of BLI, PpIX fluorescence (5-ALA product) and Dextran-FITC (4 kDa) fluorescence were acquired. All experimental conditions were done in triplicate. […] Here, NS=not significant; BLI=bioluminescent imaging; eGFP=enhanced green fluorescence protein; fLuc=firefly luciferase; 5-ALA=5 aminolevulinic acid; FITC=fluorescein isothiocyanate; PpIX=protoporphyrin IX; and FL=fluorescence.
In vitro tumor treating field apparatus: The coverslips were transferred to a ceramic dish of the Inovitro™ system, which in turn was mounted onto Inovitro™ base plates (Novocure Ltd., Haifa, Israel). Tumor treating fields at 200 kHz (1-4 V/cm) were applied through an Inovitro™ power generator. Incubator ambient temperatures spanned 20-27° C. with a target temperature of 37° C. in the ceramic dishes upon application of the TTFields. Duration of TTFields exposure lasted anywhere from 0.5 to 72 h, after which coverslips were removed and processed for the appropriate bioassays (see below). […]

Series [3] concerns BBB of rat brain. In words: Evans Blue accumulation in rat brain after alternating electric fields. Format: in vivo. Particulars: 100 kHz fields 72 h vs sham heat/control. From the text:
A set of in vivo experiments on rats was also run to quantify the increase in vessel permeability caused by exposure to the alternating electric fields. These experiments used Evans Blue (EB) dye, which is an azo dye that has a very high affinity for serum albumin (molecule size ˜69 kDa). Because of its large molecule size, serum albumin will ordinarily not be able to get past the BBB.
This was accomplished by shaving each rat's head, positioning a first pair of capacitively coupled electrodes on the top and bottom of the rat's head, and positioning a second pair of capacitively coupled electrodes on the left and right sides of the rat's head. A 100 kHz AC voltage was then applied between the top and bottom electrodes for 1 second, followed by a 100 kHz AC voltage applied between the right and left electrodes for 1 second, in a repeating sequence.
Under the conditions indicated in Table 1 and for the times indicated on Table 1, EB was injected intravenously into the tail vein under anesthesia (Once injected, EB immediately binds to Albumin), and the EB was allowed to circulate for 2 hours in all cases. The following steps were then performed: (a) intracardiac perfusion with saline; (b) brains are sliced in four pieces with a brain slicer; (c) pieces were photographed to localize staining and weighted; (d) EB extraction after tissue homogenization with TCA 50% (1:3) and centrifuge and (e) EB quantification at 610 nm. Results are given as μg EB per g tissue.
During the experiment, two animals from group 2 and one animal from group 4 were excluded (disrupted treatment, failure to inject EB into the tail vein). There were no differences between the animals treated with alternating electric fields (groups 1 and 2) and therefore these animals were grouped together. Similarly, there were no differences between sham heat and control animals (groups 3 and 4) and therefore these animals were grouped together.
EB accumulation in these four specific sections was then measured. In addition, a computer simulation was performed to determine the field strength in each of these four sections. […]

For series [4], the system named is BBB of rat brain. Nature of the series: DCE-MRI of gadolinium contrast agent accumulation in rat brain. It counts as in vivo. The following applies: for contrast agent accumulation in the brain tissue after recovery: 100 kHz fields 72 h followed by 96 h without fields. Here is the method:
Yet another set of in vivo experiments was performed using Dynamic Contrast Enhanced MRI (DCE-MRI) with intravenous injection of Gadolinium contrast agent (Gd-DTPA, Magnetol, MW 547). In these experiments, test rats were treated with 100 kHz alternating electric fields for 72 h, and control rats were not treated with alternating electric fields for the same period of time. After this 72 h period, the alternating electric field was turned off, the rats were anesthetized, and a series of 60 Tlw MRI scans (each of the scans having a duration of 28 seconds) was acquired. The gadolinium contrast agent was injected into the rat's tail vein during the 7th of these 60 scans.
The image analysis for each rat included (1) determining a baseline for each voxel by calculating the mean of the first six Tlw MRI scans for each voxel (i.e., the scans prior to the injection of the gadolinium); (2) computing voxel by voxel, the percent signal change (i.e., gadolinium accumulation) over time relative to the baseline; (3) segmenting the brain into anterior, middle, and posterior segments; (4) generating for each of the three segments the mean percent signal change with respect to the baseline over all the voxels in the respective segment and then (5) averaging 4 consecutive time points (i.e. 4 scans) together. Finally, the data from all of the rats within any given group were averaged together.
To test whether this increase in permeability of the BBB was temporary, the same test conditions were repeated, but followed with an additional 96 hours without alternating electric fields. After this 96 hour period, a series of 60 Tlw MM scans (each of the scans having a duration of 28 seconds) was acquired using the same procedure described above (including the gadolinium injection). The results of this portion of the DCE-MM experiment for each of the three segments of the brain are also depicted in FIG. 8. […] From this we can conclude that the permeability of the BBB returns to normal after the alternating electric fields are discontinued.
The relationship between the intensity of the alternating electric fields and the impact of those fields on BBB integrity and permeability was also apparent from in vivo experiments in rats using serial dynamic contrast-enhanced (DCE) MM to measure gadolinium (Gd) uptake after 100 kHz alternating electric fields were applied for 72 hours. The rat's brains were segmented into three regions (anterior, posterior, and middle), and simulations of the alternating electric fields delivery to those three regions yielded field strengths of 1.5±0.6 V/cm RMS, 2.1±1.2 V/cm RMS, and 2.7±1.7 V/cm RMS respectively. […] These findings also indicate that the cells' response to alternating electric fields depends on the intensity of the fields.

Series [5] concerns GBM39/Luc cells. In words: Drug sensitivity / synergy with TTFields. It counts as cell-based, human.
Series [6] relates to GBM F98 cells. Nature of the series: Paclitaxel plus alternating electric fields in orthotopic glioblastoma rats. Format: in vivo, rat. The procedure:
Another set of in vivo experiments was performed to determine whether paclitaxel (PTX, which is a drug that ordinarily cannot traverse the BBB) can make it across the BBB when the subject is treated with alternating electric fields. In one of these experiments, glioblastoma was induced in rats by injecting them orthotopically with GBM F98 cells on day 0 of the experiment. On day 6, a first set of MRI scans of each rat's brains was obtained. Alternating electric fields at 100 kHz were applied to all the rats on days 7 through 10. On day 10 (i.e., after applying the fields for 72 hours), some of the rats were injected i.p. with 25 mg/kg PTX, while other rats were not injected. Subsequently, on day 13 (i.e., 3 days post PTX administration), a second set of MRI scans of each rat's brain was obtained. Ki67 (red) and DAPI (blue) staining was evaluated for the test and control rats.
A similar experiment using a 15 mg/kg dose of PTX was performed, except that instead of quantifying the Ki67/DAPI ratio on day 13, Mill scans and post mortem tissue sections were used to determine the fold increase of the tumor volume on day 15. The tumor volumes from these experiments are depicted in FIG. 11. […] And the inventors have concluded that the alternating electric fields allow the PTX (or metabolites thereof) to cross the BBB.

Series [7] deals with T1, firefly luciferase (Photinus pyralis, UniProt P08659).
T1 construct: purchased Sigma Aldrich Inc (St. Louis, Mo.) SRE0045-2MG
T1 sequence (P08659 whole entry): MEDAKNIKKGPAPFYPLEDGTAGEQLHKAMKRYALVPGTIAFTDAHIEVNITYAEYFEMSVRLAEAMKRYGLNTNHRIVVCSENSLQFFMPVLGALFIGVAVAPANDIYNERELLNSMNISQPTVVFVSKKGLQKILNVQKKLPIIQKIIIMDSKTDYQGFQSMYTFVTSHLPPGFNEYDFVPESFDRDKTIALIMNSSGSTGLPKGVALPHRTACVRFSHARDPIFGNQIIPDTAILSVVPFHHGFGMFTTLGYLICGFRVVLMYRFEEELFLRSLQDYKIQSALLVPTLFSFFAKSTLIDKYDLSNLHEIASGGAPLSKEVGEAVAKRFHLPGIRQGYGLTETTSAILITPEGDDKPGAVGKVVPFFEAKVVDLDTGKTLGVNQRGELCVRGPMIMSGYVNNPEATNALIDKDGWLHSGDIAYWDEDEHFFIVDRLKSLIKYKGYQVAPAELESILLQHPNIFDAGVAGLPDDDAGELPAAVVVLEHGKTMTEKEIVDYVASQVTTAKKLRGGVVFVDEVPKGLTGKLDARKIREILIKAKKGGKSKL
Nature of the series: Activity of purified firefly luciferase under TTFields. Format: biochemical. Here is the method:
U87-MG/eGFP-fLuc cells were seeded on Thermanox glass coverslips, allowed to settle and grow, and then subjected to either TTFields or no TTFields. […] This increase in BLI occurred as early as 30 minutes after commencement of TTFields and continued to 24 h of TTFields exposure. […] Without being bound by this theory, it is believed that the elevation in bioluminescence was not due to a direct effect of TTFields on firefly luciferase activity because exposure of purified firefly luciferase to 200 kHz TTFields led to over a 1000-fold loss in enzymatic activity 60 minutes after initiation of TTFields.
FIG. 16B depicts the effect of TTFields on eGFP fluorescence in U87-MG/eGFP-fLuc cells observed from time course of representative images (not shown) for TTFields-exposed vs. TTFields-unexposed U87-MG/eGFP-fLuc. […] More specifically, FIG. 16C depicts the effect of TTFields on the fLuc bioluminescence (fLuc-BLI) over eGFP fluorescence (eGFP-FL) ratio for U87-MG/eGFP-fLuc cells as a function of length of TTFields exposure; and FIG. 16D depicts the effect of TTFields exposure vs. non-exposure on the fLuc-BLI/eGFP-FL ratio as a function of TTFields exposure time (hours).

Regarding `O=C(O)[C@H]1CSC(c2nc3ccc(O)cc3s2)=N1` [D-luciferin], the “permeation of luciferase substrate through the plasma membrane” value in series [1] is given as “increased permeation”. For the same compound, in series [2], the “reversibility of increased uptake” value is recorded as “reversibly increase uptake”.

On to `Cc1cc(-c2ccc(/N=N/c3ccc4c(S(=O)(=O)O)cc(S(=O)(=O)O)c(N)c4c3O)c(C)c2)ccc1/N=N/c1ccc2c(S(=O)(=O)O)cc(S(=O)(=O)O)c(N)c2c1O` [EB, Evans Blue], for which, in series [3] (EB i.v., 2 h circulation), the “EB accumulation in posterior sections (3, 4)” value is given as “smaller increase (that was not statistically significant)” and the “EB accumulation in sections 1, 2 (frontal cerebrum)” value is “statistically significant increase”. Besides, the “average EB accumulation in the rat brain, averaged over all four sections” value in series [3] (p<0.05) is on record as “higher accumulation”.

Turning to `O=C([O-])CN(CCN(CC(=O)[O-])CC(=O)O)CCN(CC(=O)[O-])CC(=O)O.[Gd+3]` [Gd-DTPA], in series [4] (100 kHz fields 72 h), the “Gd accumulation in the anterior part of the brain” value is given as “no significant Gd accumulation”. Further, in series [4] (100 kHz fields 72 h, about 10 minutes after Gd injection, vs control rats), the “signal enhancement in the middle and posterior brains” value is “significantly increased signal enhancement”. The “contrast agent accumulation in the brain tissue after recovery” value in series [4] (listed as Gd) was “no significant accumulation”; in series [4] (listed as contrast agent), “not significantly different”. For the same compound, the “contrast agent accumulation in the brain tissue” value in series [4] (100 kHz fields 72 h vs control rats) was “significantly higher”. The “spatial distribution of Gd enhancement” value in series [4] (test rats, 20 to 23 minutes post-contrast administration) was “distributed in the whole brain”.

Regarding `CCc1c2c(nc3ccc(OC(=O)N4CCC(N5CCCCC5)CC4)cc13)-c1cc3c(c(=O)n1C2)COC(=O)[C@]3(O)CC` [Irinotecan], in series [5], the “synergy of TTFields plus drug” value is given as “synergy was found”. Moreover, the “sensitivity of cells to drug” value in series [5] (TTFields for 3 days vs no TTFields) is recorded as “improves the sensitivity”.

With `CC(=O)O[C@H]1C(=O)[C@@]2(C)[C@H]([C@H](OC(=O)c3ccccc3)[C@]3(O)C[C@H](OC(=O)[C@H](O)[C@@H](NC(=O)c4ccccc4)c4ccccc4)C(C)=C1C3(C)C)[C@]1(OC(C)=O)CO[C@@H]1C[C@@H]2O` [PTX, paclitaxel], in series [6] (15 mg/kg PTX + 100 kHz fields vs heat only, heat+PTX, fields only, day 15), the “fold increase of the tumor volume” value is given as “significant decrease in the fold tumor volume increase”. In addition, the “Ki67/DAPI ratio (cell proliferation in the GBM tumor)” value in series [6] (25 mg/kg PTX i.p. after 72 h 100 kHz fields vs fields only, day 13) was “significant decrease in cell proliferation”.

Regarding `Oc1ccc(Cc2nc3c(Cc4ccccc4)nc(-c4ccc(O)cc4)cn3c2O)cc1` [coelenterazine], in series [1], the “permeation of luciferase substrate through the plasma membrane” value is “increased permeation”.

In the case of “firefly luciferase: purified firefly luciferase enzyme”, the “loss in enzymatic activity” value in series [7] (200 kHz TTFields, 60 minutes after initiation) is recorded as more than 1000 fold. Moreover, the “activity of purified firefly luciferase” value in series [7] (TTFields vs no TTFields, p<0.01) is reported as “significantly decreased activity”.
